{"source": "PubChem BioAssay AID258", "about": "(DTP/NCI, 2004)", "tested_on": "CD2F1 mice, L1210 leukemia sc, survival T/C", "assay": "NCI In Vivo Anticancer Drug Screen. Data for tumor model L1210 Leukemia (subcutaneous) in CD2F1 (CDF1) mice", "conditions": "endpoint: median survival time, higher = longer survival", "summary_of_the_method": "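Read-out: survival or tumor size. Value = treated (T) / vehicle control (C). Transplantable tumor in mice.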", "note": "Where “and” joins values, the source holds several entries; their conditions need not be identical. Identical values can stand only once. Inconclusive results and toxic doses are left out.", "data": [{"compound": "CC(=O)[C@H]1CC[C@H]2[C@@H]3C[C@H](C)C4=CC(=O)CC[C@]4(C)[C@H]3C(=O)C[C@]12C", "values": [{"measurement": "T/C", "setting": "dose: 20.0 mg/kg/injection, schedule: Q01DX009 (ip), vehicle: saline with Tween-80", "result": "94 % of control"}, {"measurement": "T/C", "setting": "dose: 20.0 mg/kg/injection, schedule: Q01DX009 (sc), vehicle: saline with Tween-80", "result": "97 % of control"}, {"measurement": "T/C", "setting": "dose: 40.0 mg/kg/injection, schedule: Q01DX009 (ip), vehicle: saline with Tween-80", "result": "93 % of control"}, {"measurement": "T/C", "setting": "dose: 40.0 mg/kg/injection, schedule: Q01DX009 (sc), vehicle: saline with Tween-80", "result": "98 % of control"}, {"measurement": "T/C", "setting": "dose: 80.0 mg/kg/injection, schedule: Q01DX009 (ip), vehicle: saline with Tween-80", "result": "93 % of control"}, {"measurement": "T/C", "setting": "dose: 80.0 mg/kg/injection, schedule: Q01DX009 (sc), vehicle: saline with Tween-80", "result": "101 % of control"}, {"measurement": "T/C", "setting": "dose: 160.0 mg/kg/injection, schedule: Q01DX009 (ip), vehicle: saline with Tween-80", "result": "93 % of control"}, {"measurement": "T/C", "setting": "dose: 160.0 mg/kg/injection, schedule: Q01DX009 (sc), vehicle: saline with Tween-80", "result": "98 % of control"}, {"measurement": "T/C", "setting": "dose: 320.0 mg/kg/injection, schedule: Q01DX009 (ip), vehicle: saline with Tween-80", "result": "96 % of control"}, {"measurement": "T/C", "setting": "dose: 320.0 mg/kg/injection, schedule: Q01DX009 (sc), vehicle: saline with Tween-80", "result": "105 % of control"}, {"measurement": "T/C", "setting": "dose: 640.0 mg/kg/injection, schedule: Q01DX009 (sc), vehicle: saline with Tween-80", "result": "109 % of control"}]}, {"compound": "CCN=c1cc2oc3cc(NCC)c(C)cc3c(-c3ccccc3C(=O)OCC)c-2cc1C", "values": [{"measurement": "T/C", "setting": "dose: 0.63 mg/kg/injection, schedule: Q01DX009 (ip), vehicle: water", "result": "102 % of control"}, {"measurement": "T/C", "setting": "dose: 0.63 mg/kg/injection, schedule: Q01DX009 (sc), vehicle: water", "result": "100 % of control"}, {"measurement": "T/C", "setting": "dose: 1.25 mg/kg/injection, schedule: Q01DX009 (ip), vehicle: water", "result": "96 % of control"}, {"measurement": "T/C", "setting": "dose: 1.25 mg/kg/injection, schedule: Q01DX009 (sc), vehicle: water", "result": "104 % of control and 97 % of control"}, {"measurement": "T/C", "setting": "dose: 2.5 mg/kg/injection, schedule: Q01DX009 (sc), vehicle: water", "result": "105 % of control"}, {"measurement": "T/C", "setting": "dose: 5.0 mg/kg/injection, schedule: Q01DX009 (sc), vehicle: water", "result": "104 % of control"}]}, {"compound": "C[n+]1c2ccccc2nc2c(N)cc(N)cc21", "values": [{"measurement": "T/C", "setting": "dose: 3.0 mg/kg/injection, schedule: Q01DX Z (ip), vehicle: water", "result": "100 % of control"}, {"measurement": "T/C", "setting": "dose: 5.0 mg/kg/injection, schedule: Q01DX Z (ip), vehicle: water", "result": "100 % of control"}, {"measurement": "T/C", "setting": "dose: 5.0 mg/kg/injection, schedule: Q01DX Z (sc), vehicle: water", "result": "100 % of control"}, {"measurement": "T/C", "setting": "dose: 8.4 mg/kg/injection, schedule: Q01DX Z (ip), vehicle: water", "result": "100 % of control"}, {"measurement": "T/C", "setting": "dose: 8.4 mg/kg/injection, schedule: Q01DX Z (sc), vehicle: water", "result": "100 % of control"}, {"measurement": "T/C", "setting": "dose: 14.0 mg/kg/injection, schedule: Q01DX Z (ip), vehicle: water", "result": "100 % of control"}, {"measurement": "T/C", "setting": "dose: 14.0 mg/kg/injection, schedule: Q01DX Z (sc), vehicle: water", "result": "100 % of control"}, {"measurement": "T/C", "setting": "dose: 23.0 mg/kg/injection, schedule: Q01DX Z (ip), vehicle: water", "result": "100 % of control"}, {"measurement": "T/C", "setting": "dose: 23.0 mg/kg/injection, schedule: Q01DX Z (sc), vehicle: water", "result": "111 % of control"}, {"measurement": "T/C", "setting": "dose: 39.0 mg/kg/injection, schedule: Q01DX Z (ip), vehicle: water", "result": "111 % of control"}, {"measurement": "T/C", "setting": "dose: 39.0 mg/kg/injection, schedule: Q01DX Z (sc), vehicle: water", "result": "111 % of control"}]}, {"compound": "COc1cccc2c1C(=O)c1c(O)c3c(c(O)c1C2=O)C[C@@](O)(C(=O)CO)C[C@@H]3OC1CC(OC(C)=O)C(OC(C)=O)C(C)O1", "note": "(stereo partly specified)", "values": [{"measurement": "T/C", "setting": "dose: 1.56 mg/kg/injection, schedule: Q01DX009 (ip), vehicle: distilled water + Tween-80", "result": "106 % of control"}, {"measurement": "T/C", "setting": "dose: 1.57 mg/kg/injection, schedule: Q01DX009 (ip), vehicle: distilled water + Tween-80", "result": "105 % of control"}, {"measurement": "T/C", "setting": "dose: 3.13 mg/kg/injection, schedule: Q01DX009 (ip), vehicle: distilled water + Tween-80", "result": "105 % of control and 114 % of control"}, {"measurement": "T/C", "setting": "dose: 12.5 mg/kg/injection, schedule: Q01DX009 (ip), vehicle: distilled water + Tween-80", "result": "182 % of control and 195 % of control"}]}, {"compound": "CN1CCN(c2ccc3nc(-c4ccc5nc(-c6ccc(O)cc6)[nH]c5c4)[nH]c3c2)CC1", "values": [{"measurement": "T/C", "setting": "dose: 4.7 mg/kg/injection, schedule: Q03HX024 (ip), vehicle: saline", "result": "102 % of control"}, {"measurement": "T/C", "setting": "dose: 9.4 mg/kg/injection, schedule: Q03HX024 (ip), vehicle: saline", "result": "107 % of control"}, {"measurement": "T/C", "setting": "dose: 14.0 mg/kg/injection, schedule: Q03HX008 (ip), vehicle: saline", "result": "102 % of control"}, {"measurement": "T/C", "setting": "dose: 18.75 mg/kg/injection, schedule: Q03HX024 (ip), vehicle: saline", "result": "110 % of control"}, {"measurement": "T/C", "setting": "dose: 28.0 mg/kg/injection, schedule: Q03HX008 (ip), vehicle: saline", "result": "113 % of control"}, {"measurement": "T/C", "setting": "dose: 37.5 mg/kg/injection, schedule: Q03HX024 (ip), vehicle: saline", "result": "119 % of control"}, {"measurement": "T/C", "setting": "dose: 37.5 mg/kg/injection, schedule: Q04DX003 (ip), vehicle: saline", "result": "101 % of control"}, {"measurement": "T/C", "setting": "dose: 75.0 mg/kg/injection, schedule: Q04DX003 (ip), vehicle: saline", "result": "107 % of control"}, {"measurement": "T/C", "setting": "dose: 112.0 mg/kg/injection, schedule: Q01DX001 (ip), vehicle: suspension in saline", "result": "104 % of control"}, {"measurement": "T/C", "setting": "dose: 150.0 mg/kg/injection, schedule: Q04DX003 (ip), vehicle: saline", "result": "110 % of control"}]}, {"compound": "CC[n+]1c(-c2ccccc2)c2cc(N)ccc2c2ccc(N)cc21", "values": [{"measurement": "T/C", "setting": "dose: 5.0 mg/kg/injection, schedule: Q01DX Z (sc), vehicle: carboxymethylcellulose (CMC)", "result": "100 % of control"}, {"measurement": "T/C", "setting": "dose: 8.4 mg/kg/injection, schedule: Q01DX Z (sc), vehicle: carboxymethylcellulose (CMC)", "result": "94 % of control"}, {"measurement": "T/C", "setting": "dose: 14.0 mg/kg/injection, schedule: Q01DX Z (sc), vehicle: carboxymethylcellulose (CMC)", "result": "100 % of control"}, {"measurement": "T/C", "setting": "dose: 23.0 mg/kg/injection, schedule: Q01DX Z (sc), vehicle: carboxymethylcellulose (CMC)", "result": "100 % of control"}, {"measurement": "T/C", "setting": "dose: 39.0 mg/kg/injection, schedule: Q01DX Z (sc), vehicle: carboxymethylcellulose (CMC)", "result": "105 % of control"}, {"measurement": "T/C", "setting": "dose: 64.0 mg/kg/injection, schedule: Q01DX Z (sc), vehicle: carboxymethylcellulose (CMC)", "result": "111 % of control"}]}, {"compound": "CC(=O)OC1COC(NC(=O)N(CCCl)N=O)C(OC(C)=O)C1OC(C)=O", "note": "(stereo unspecified)", "values": [{"measurement": "T/C", "setting": "dose: 0.75 mg/kg/injection, schedule: Q01DX009 (ip), vehicle: saline with Tween-80", "result": "104 % of control"}, {"measurement": "T/C", "setting": "dose: 1.5 mg/kg/injection, schedule: Q01DX009 (ip), vehicle: saline with Tween-80", "result": "102 % of control"}, {"measurement": "T/C", "setting": "dose: 3.0 mg/kg/injection, schedule: Q01DX009 (ip), vehicle: saline with Tween-80", "result": "102 % of control and 122 % of control"}, {"measurement": "T/C", "setting": "dose: 12.0 mg/kg/injection, schedule: Q01DX009 (ip), vehicle: saline with Tween-80", "result": "158 % of control and 297 % of control"}]}, {"compound": "CNCCN=c1ccc2c3c1c(O)c1c(O)ccc(=O)c1c3[nH]n2CCNCCO", "values": [{"measurement": "T/C", "setting": "dose: 1.08 mg/kg/injection, schedule: Q01DX009 (ip), vehicle: water", "result": "117 % of control"}, {"measurement": "T/C", "setting": "dose: 3.0 mg/kg/injection, schedule: Q01DX009 (ip), vehicle: water", "result": "206 % of control"}, {"measurement": "T/C", "setting": "dose: 5.0 mg/kg/injection, schedule: Q01DX009 (ip), vehicle: water", "result": "124 % of control"}, {"measurement": "T/C", "setting": "dose: 8.3 mg/kg/injection, schedule: Q01DX009 (ip), vehicle: water", "result": "89 % of control"}]}, {"compound": "COc1ccc2c(c1)-c1nn(CCCN(C)C)c3ccc([N+](=O)[O-])c(c13)N2", "values": [{"measurement": "T/C", "setting": "dose: 3.12 mg/kg/injection, schedule: Q01DX009 (ip), vehicle: water", "result": "122 % of control"}, {"measurement": "T/C", "setting": "dose: 6.25 mg/kg/injection, schedule: Q01DX009 (ip), vehicle: water", "result": "161 % of control"}, {"measurement": "T/C", "setting": "dose: 25.0 mg/kg/injection, schedule: Q01DX009 (ip), vehicle: water", "result": "104 % of control"}]}, {"compound": "CC(=O)Nc1ccc2nc3ccc(NC(C)=O)cc3[n+](-c3ccccc3)c2c1", "values": [{"measurement": "T/C", "setting": "dose: 8.4 mg/kg/injection, schedule: Q01DX Z (ip), vehicle: saline", "result": "90 % of control"}, {"measurement": "T/C", "setting": "dose: 14.0 mg/kg/injection, schedule: Q01DX Z (ip), vehicle: saline", "result": "95 % of control"}, {"measurement": "T/C", "setting": "dose: 14.0 mg/kg/injection, schedule: Q01DX Z (sc), vehicle: saline", "result": "100 % of control"}, {"measurement": "T/C", "setting": "dose: 23.0 mg/kg/injection, schedule: Q01DX Z (ip), vehicle: saline", "result": "90 % of control"}, {"measurement": "T/C", "setting": "dose: 23.0 mg/kg/injection, schedule: Q01DX Z (sc), vehicle: saline", "result": "100 % of control"}, {"measurement": "T/C", "setting": "dose: 39.0 mg/kg/injection, schedule: Q01DX Z (ip), vehicle: saline", "result": "100 % of control"}, {"measurement": "T/C", "setting": "dose: 39.0 mg/kg/injection, schedule: Q01DX Z (sc), vehicle: saline", "result": "100 % of control"}, {"measurement": "T/C", "setting": "dose: 65.0 mg/kg/injection, schedule: Q01DX Z (ip), vehicle: saline", "result": "100 % of control"}, {"measurement": "T/C", "setting": "dose: 65.0 mg/kg/injection, schedule: Q01DX Z (sc), vehicle: saline", "result": "105 % of control"}, {"measurement": "T/C", "setting": "dose: 108.0 mg/kg/injection, schedule: Q01DX Z (ip), vehicle: saline", "result": "100 % of control"}, {"measurement": "T/C", "setting": "dose: 108.0 mg/kg/injection, schedule: Q01DX Z (sc), vehicle: saline", "result": "100 % of control"}, {"measurement": "T/C", "setting": "dose: 180.0 mg/kg/injection, schedule: Q01DX Z (sc), vehicle: saline", "result": "110 % of control"}]}]}
